Source: paper PMC6332354 (Molecules, 2015)

Tests used:
rat ACC1 = biological target: T1, rat ACC1 (Rattus norvegicus, UniProt P11497); experiment: ACC1 in vitro assay (Kinase-Glo Plus luminescence); format: biochemical; details: arithmetic means of three experiments, standard deviation in parentheses
T1 construct: purchased Huawei Pharmaceutical Co. Ltd (Shanghai, China)
Method: (§1) To investigate the biological activities of the synthesized compounds, the in vitro inhibitory activities of these compounds against both rat ACC1 and ACC2 were evaluated according to the previous experimental method with some changes. The ACC1 and ACC2 enzymes were supplied by Huawei Pharmaceutical Co. Ltd (Shanghai, China). […] Then, the solution was diluted with buffer solution until it reached the required concentration (1 nM to 10 μM) and 5μL of the dilution was added to a 50 μL reaction mixture containing 30 mM HEPES, pH 7.4, 2 mM MgCl2, 2 mM sodium citrate, 1 mM DTT, 25 μM ATP, 16 mM NaHCO3 and 15 μM acetyl-CoA. All of the enzymatic reactions were conducted at 30 °C for 60 min. The assay was performed using Kinase-Glo Plus luminescence kinase assay kit (Beijing, China), which measures kinase activity by quantifying the amount of ATP remaining in solution following a kinase reaction. The luminescent signal from the assay […] with the amount of kinase activity. The same concentrations of DMSO were tested in parallel and used as background control. The inhibition percentage was expressed as the average value from three independent experiments.

rat ACC2 = biological target: T2, rat ACC2 (Rattus norvegicus, UniProt D3ZBE2); experiment: ACC2 in vitro assay (Kinase-Glo Plus luminescence); format: biochemical; details: arithmetic means of three experiments, standard deviation in parentheses
T2 construct: purchased Huawei Pharmaceutical Co. Ltd (Shanghai, China)
Method: as §1

[1] = system: human embryonic lung fibroblast (HELF) cells; experiment: In vitro cytotoxicity, MTT test; format: cell-based; details: HELF (WI-38) cells, 48 h incubation
Method: In the cytotoxicity experiment, tetrazolium-based colorimetric assay (MTT test) was used to measure the cytotoxic effect of these selected potent compounds on normal cells. Human embryonic lung fibroblast cell line (HELF, WI-38) was purchased from the Cell Resource Center, Chinese Academy of Medical Sciences (Beijing, China). Briefly, cells (5000 per well) were collected and seeded in 96-well plates. After incubation for 24 h, cells were exposed to fresh medium containing various concentrations of test compound at 37 °C. After incubation for 48 h, 20 μL of MTT tetrazolium salt dissolved in phosphate buffered saline (PBS) at a concentration of 5 mg/mL was added to each well and incubated in a CO2 incubator for 4 h. The medium was then aspirated from each well and 150 μL of DMSO was added to dissolve formazan crystals. The absorbance of each well was measured by ELx808 Microplate Reader (BioTek, Winooski, VT, USA) at a test wavelength of 490 nm. TC50, the drug concentration which reduces the cell viability by 50% was calculated by the Logit method.

ACC1 = system: ACC1; parameters: method as in PMID 12842871, PMID 25333641; details: ACC1 from mammalia; read-out: IC50 against ACC1; cited from earlier work
ACC2 = system: ACC2; parameters: method as in PMID 12842871, PMID 25333641; details: ACC2 from mammalia; read-out: IC50 against ACC2; cited from earlier work

T2 sequence (D3ZBE2 17-2459): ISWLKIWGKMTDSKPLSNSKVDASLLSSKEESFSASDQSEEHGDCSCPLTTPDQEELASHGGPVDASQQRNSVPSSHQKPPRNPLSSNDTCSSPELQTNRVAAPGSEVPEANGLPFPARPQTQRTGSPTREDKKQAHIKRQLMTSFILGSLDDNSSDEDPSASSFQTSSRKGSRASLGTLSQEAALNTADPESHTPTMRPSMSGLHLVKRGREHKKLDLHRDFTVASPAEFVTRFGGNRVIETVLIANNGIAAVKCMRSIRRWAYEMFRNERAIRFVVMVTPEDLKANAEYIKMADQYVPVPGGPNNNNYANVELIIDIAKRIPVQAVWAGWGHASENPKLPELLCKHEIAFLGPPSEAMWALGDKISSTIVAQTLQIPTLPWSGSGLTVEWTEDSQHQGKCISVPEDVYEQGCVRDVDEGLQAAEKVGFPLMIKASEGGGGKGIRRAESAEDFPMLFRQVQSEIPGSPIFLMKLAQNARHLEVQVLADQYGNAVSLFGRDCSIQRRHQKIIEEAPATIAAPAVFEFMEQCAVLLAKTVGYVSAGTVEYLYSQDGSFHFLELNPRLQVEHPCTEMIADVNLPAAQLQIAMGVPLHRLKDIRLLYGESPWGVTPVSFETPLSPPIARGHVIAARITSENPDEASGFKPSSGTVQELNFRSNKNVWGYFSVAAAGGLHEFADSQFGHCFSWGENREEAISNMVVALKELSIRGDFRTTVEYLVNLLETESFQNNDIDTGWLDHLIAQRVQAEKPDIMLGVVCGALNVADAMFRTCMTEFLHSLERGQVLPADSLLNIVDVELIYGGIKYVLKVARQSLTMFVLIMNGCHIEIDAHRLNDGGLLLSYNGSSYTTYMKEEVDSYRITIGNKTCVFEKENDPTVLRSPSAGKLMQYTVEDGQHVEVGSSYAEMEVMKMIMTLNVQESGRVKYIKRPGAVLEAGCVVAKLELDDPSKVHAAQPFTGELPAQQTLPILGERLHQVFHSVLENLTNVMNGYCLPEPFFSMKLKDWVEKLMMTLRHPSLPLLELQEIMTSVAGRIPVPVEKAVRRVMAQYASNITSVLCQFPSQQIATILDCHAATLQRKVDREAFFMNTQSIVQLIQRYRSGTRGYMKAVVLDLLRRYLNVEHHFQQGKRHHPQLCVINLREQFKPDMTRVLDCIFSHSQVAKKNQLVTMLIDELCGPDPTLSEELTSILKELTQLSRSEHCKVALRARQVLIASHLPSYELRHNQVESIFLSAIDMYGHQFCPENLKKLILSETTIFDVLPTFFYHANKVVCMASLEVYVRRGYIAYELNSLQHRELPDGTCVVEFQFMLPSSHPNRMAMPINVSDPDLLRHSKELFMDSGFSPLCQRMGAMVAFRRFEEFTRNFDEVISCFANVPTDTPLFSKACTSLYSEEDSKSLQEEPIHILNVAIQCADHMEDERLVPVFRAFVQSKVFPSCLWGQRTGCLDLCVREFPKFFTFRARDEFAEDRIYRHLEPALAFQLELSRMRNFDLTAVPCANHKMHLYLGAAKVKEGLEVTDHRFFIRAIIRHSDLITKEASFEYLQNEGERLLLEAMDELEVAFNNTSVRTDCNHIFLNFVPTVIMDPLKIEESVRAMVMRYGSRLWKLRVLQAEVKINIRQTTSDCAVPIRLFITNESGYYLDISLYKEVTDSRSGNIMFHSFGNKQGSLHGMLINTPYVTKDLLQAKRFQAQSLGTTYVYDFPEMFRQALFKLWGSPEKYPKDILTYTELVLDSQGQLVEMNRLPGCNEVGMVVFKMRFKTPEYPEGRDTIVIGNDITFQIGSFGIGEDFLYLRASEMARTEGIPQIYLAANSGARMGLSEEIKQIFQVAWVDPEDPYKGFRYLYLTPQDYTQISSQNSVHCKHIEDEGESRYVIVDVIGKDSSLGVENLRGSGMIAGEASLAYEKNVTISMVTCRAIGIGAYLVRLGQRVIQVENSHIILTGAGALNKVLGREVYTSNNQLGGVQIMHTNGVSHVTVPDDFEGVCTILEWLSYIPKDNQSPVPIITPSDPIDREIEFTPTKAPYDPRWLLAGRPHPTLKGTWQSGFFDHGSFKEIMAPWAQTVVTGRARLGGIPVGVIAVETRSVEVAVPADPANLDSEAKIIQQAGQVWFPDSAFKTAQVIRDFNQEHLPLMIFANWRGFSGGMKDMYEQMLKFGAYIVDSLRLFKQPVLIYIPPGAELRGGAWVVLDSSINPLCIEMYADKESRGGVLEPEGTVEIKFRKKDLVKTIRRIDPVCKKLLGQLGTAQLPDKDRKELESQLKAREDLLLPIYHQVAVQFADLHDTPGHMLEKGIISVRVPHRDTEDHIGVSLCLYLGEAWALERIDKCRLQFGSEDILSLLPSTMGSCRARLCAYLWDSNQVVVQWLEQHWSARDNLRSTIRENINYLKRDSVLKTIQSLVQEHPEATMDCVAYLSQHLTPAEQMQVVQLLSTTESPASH

| IC50 (rat ACC1) | IC50 (rat ACC2) | melting point | Compound | TC50 (concentration which reduces the cell viability by 50%) [1] | IC50 (ACC1) | IC50 (ACC2) |
| --- | --- | --- | --- | --- | --- | --- |
| 600 nM | 650 nM | – | COc1ccc(-c2cc(C(=O)N3CCC4(CC3)CC(=O)c3ccccc3O4)c3ccccc3n2)cc1 [12a, 1'-(2-(4-Methoxyphenyl)quinoline-4-carbonyl)spiro[chroman-2,4'-piperidin]-4-one] | >100 µM | – | – |
| > 1000 nM | > 1000 nM | 138 to 140 °C | O=C1CC2(CCN(C(=O)c3cc(N4CCOCC4)nc4ccccc34)CC2)Oc2ccccc21 [12g, 1'-(2-Morpholinoquinoline-4-carbonyl)spiro[chroman-2,4'-piperidin]-4-one] | – | – | – |
| – | 185 nM | – | O=C(c1c2ccccc2cc2ccccc12)N1CCC(N2CCC[C@@H](C(=O)N3CCOCC3)C2)CC1 [CP-640186, reference compound] | >100 µM | ~50 nM | ~50 nM |
| > 1000 nM | > 1000 nM | – | O=C1CC2(CCN(C(=O)c3cc(-c4ccc(Cl)cc4)nc4ccccc34)CC2)Oc2ccccc21 [12e, 1'-(2-(4-Chlorophenyl)quinoline-4-carbonyl)spiro[chroman-2,4'-piperidin]-4-one] | – | – | – |
| > 1000 nM | > 1000 nM | – | Cc1ccccc1-c1cc(C(=O)N2CCC3(CC2)CC(=O)c2ccccc2O3)c2ccccc2n1 [12c, 1'-(2-(o-Tolyl)quinoline-4-carbonyl)spiro[chroman-2,4'-piperidin]-4-one] | – | – | – |
| > 1000 nM | 940 nM | – | O=C1CC2(CCN(C(=O)c3cc(-c4ccccc4Cl)nc4ccccc34)CC2)Oc2ccccc21 [12d, 1'-(2-(2-Chlorophenyl)quinoline-4-carbonyl)spiro[chroman-2,4'-piperidin]-4-one] | – | – | – |
| > 1000 nM | > 1000 nM | – | O=C1CC2(CCN(C(=O)c3cc(Cl)nc4ccccc34)CC2)Oc2ccccc21 [12f, 1'-(2-Chloroquinoline-4-carbonyl)spiro[chroman-2,4'-piperidin]-4-one] | – | – | – |
| 760 nM | 820 nM | – | COc1ccc(-c2cc(C(=O)N3CCC4(CC3)CC(=O)c3ccccc3O4)c3ccccc3n2)cc1OC [12b, 1'-(2-(3,4-Dimethoxyphenyl)quinoline-4-carbonyl)spiro[chroman-2,4'-piperidin]-4-one] | >100 µM | – | – |

Continued, molecule first:

| Compound | IC50 (rat ACC1) | IC50 (rat ACC2) | melting point | TC50 (concentration which reduces the cell viability by 50%) [1] | IC50 (ACC1) | IC50 (ACC2) |
| --- | --- | --- | --- | --- | --- | --- |
| O=C(c1cc(-c2ccc(Cl)cc2)nc2ccccc12)N1CCC(N2CCC[C@@H](C(=O)N3CCOCC3)C2)CC1 [7h, (R)-(2-(4-Chlorophenyl)quinolin-4-yl)(3-(morpholine-4-carbonyl)-[1,4'-bipiperidin]-1'-yl)methanone] | > 1000 nM | > 1000 nM | 87 to 89 °C | – | – | – |
| CCN(CC)C(=O)[C@@H]1CCCN(C2CCN(C(=O)c3cc(-c4ccc(OC)cc4)nc4ccccc34)CC2)C1 [7c, (R)-N,N-Diethyl-1'-(2-(4-methoxyphenyl)quinoline-4-carbonyl)-[1,4'-bipiperidine]-3-carboxamide] | 940 nM | 205 nM | 101 to 102 °C | >100 µM | – | – |
| O=C(c1cc(-c2ccccc2Cl)nc2ccccc12)N1CCC(N2CCC[C@@H](C(=O)N3CCOCC3)C2)CC1 [7i, (R)-(2-(2-Chlorophenyl)quinolin-4-yl)(3-(morpholine-4-carbonyl)-[1,4'-bipiperidin]-1'-yl)methanone] | > 1000 nM | > 1000 nM | – | – | – | – |
| O=C(c1cc(-c2ccccc2)nc2ccccc12)N1CCC(N2CCC[C@@H](C(=O)N3CCOCC3)C2)CC1 [7g, (R)-(3-(Morpholino-4-carbonyl)-[1,4'-bipiperidin]-1'-yl)(2-phenylquinolin-4-yl)methanone] | 860 nM | 810 nM | 92 to 93 °C | >100 µM | – | – |
| COc1ccc(-c2cc(C(=O)N3CCC(N4CCC[C@@H](C(=O)N5CCOCC5)C4)CC3)c3ccccc3n2)cc1 [7a, (R)-(2-(4-Methoxyphenyl)quinolin-4-yl)(3-(morpholine-4-carbonyl)-[1,4′-bipiperidin]-1′-yl)methanone] | 189 nM | 172 nM | – | >100 µM | – | – |
| COc1ccc(-c2cc(C(=O)N3CCC(N4CCC[C@@H](C(=O)N5CCCC5)C4)CC3)c3ccccc3n2)cc1 [7e, (R)-(2-(4-Methoxyphenyl)quinolin-4-yl)(3-(pyrrolidine-1-carbonyl)-[1,4'-bipiperidin]-1'-yl)methanone] | 750 nM | 382 nM | – | >100 µM | – | – |
| COc1ccc(-c2cc(C(=O)N3CCC(N4CCC[C@@H](C(=O)N5CCN(C)CC5)C4)CC3)c3ccccc3n2)cc1 [7d, (R)-(2-(4-Methoxyphenyl)quinolin-4-yl)(3-(4-methylpiperazine-1-carbonyl)-[1,4'-bipiperidin]-1'-yl)-methanone] | 620 nM | 294 nM | 108 to 110 °C | >100 µM | – | – |
| COc1ccc(-c2cc(C(=O)N3CCC(N4CCC[C@@H](C(=O)N(C)Cc5ccccc5)C4)CC3)c3ccccc3n2)cc1 [7b, (R)-N-Benzyl-1'-(2-(4-methoxyphenyl)quinoline-4-carbonyl)-N-methyl-[1,4'-bipiperidine]-3-carbox-amide] | 750 nM | 360 nM | 90 to 92 °C | >100 µM | – | – |
| COc1ccc(-c2cc(C(=O)N3CCC(N4CCC[C@@H](C(=O)N5CCCCC5)C4)CC3)c3ccccc3n2)cc1 [7f, (R)-(2-(4-Methoxyphenyl)quinolin-4-yl)(3-(piperidine-1-carbonyl)-[1,4′-bipiperidin]-1′-yl)methanone] | > 1000 nM | 920 nM | 89 to 91 °C | – | – | – |
